{
  "source": "patent US20070149588A1",
  "about": "“6-(2,3,6-Trifluorophenyl)triazolopyrimidines, their preparation and their use for controlling harmful fungi, and compositions comprising these compounds” (priority 2003, published 2007)",
  "data": [
    {"system": "Botrytis cinerea", "assay": "Activity against gray mold on bell-pepper leaves caused by Botrytis cinerea, protective application", "type": "in vivo", "conditions": "250 ppm, protective spray on bell-pepper seedlings cv. Neusiedler Ideal Elite, inoculated next day, assessed visually after 5 days; untreated plants 90% infected", "protocol": "The active compounds were prepared as a stock solution with 25 mg of active compound which was made up to 10 ml using a mixture of acetone and/or DMSO and the emulsifier Uniperol® EL (wetting agent having emulsifying and dispersing action based on ethoxylated alkylphenols) in a volume ratio of solvent/emulsifier of 99 to 1. The mixture was then made up with water to 100 ml. This stock solution was diluted with the solvent/emulsifier/water mixture described to the concentration of active compound stated below. Bell-pepper seedlings of the cultivar “Neusiedler Ideal Elite” were, after 2 to 3 leaves were well developed, sprayed to runoff point with an aqueous suspension having the concentration of active compound stated below. The next day, the treated plants inoculated with a spore suspension of Botrytis cinerea, which contained 1.7×10^6 spores/ml in a 2% aqueous biomalt solution. The test plants were then placed in a dark climatized chamber at 22 to 24° C. and high atmospheric humidity. After 5 days, the extent of the fungal infection on the leaves could be determined visually in %.", "values": [
      {"compound": "CC1CCCCN1c1c(-c2c(F)ccc(F)c2F)c(C#N)nc2ncnn12", "note": "(stereo not drawn) [I-1, 5-cyano-6-(2,3,6-trifluorophenyl)-7-(2-methylpiperidinyl)-1,2,4-triazolo[1,5a]pyrimidine]", "fungal infection on the leaves": "no infection"},
      {"compound": "COc1nc2ncnn2c(NC2CCCC2)c1-c1c(F)ccc(F)c1F", "note": "[I-2, 5-methoxy-6-(2,3,6-trifluorophenyl)-7-cyclopentylamino-1,2,4-triazolo[1,5a]pyrimidine]", "fungal infection on the leaves": "no infection"},
      {"compound": "Cc1nc2ncnn2c(N2CCCCC2C)c1-c1c(F)ccc(F)c1F", "note": "(stereo not drawn) [I-3, 5-methyl-6-(2,3,6-trifluorophenyl)-7-(2-methylpiperidinyl)-1,2,4-triazolo[1,5a]pyrimidine]", "fungal infection on the leaves": "no infection"}
    ]}
  ]
}
